“Also recorded” adds a separate entry of the source. Starred links: 1 amine or outer side, 2 acyl side, 3 side chain; linkers in the order of their positions; H or OH if unused. Positions of bridges follow the written chain, without caps; N, C: chain ends. Residues, ends and D or L forms follow the SMILES beside them. X1 = C(C[*:1])C[*:2]
What was measured:
α-chymotrypsin = biological target: T1, α-chymotrypsin (Bos taurus, UniProt P00766); assay: Chymotrypsin stability test; format: in vitro ADME, bovine; conditions: bovine, pH 8; read-out: t1/2 chymotrypsin stability assay (converted)
T1 construct: freshly prepared α-chymotrypsin from bovine pancreas type II, ≥40 U/mg; purchased; host or cells: bovine pancreas
Description: (§1) Assays were performed using freshly prepared α-chymotrypsin from bovine pancreas type II, ≥40 U/mg. The enzyme was initially reconstituted in HCl […] (1 μg/μL), and kept in ice until used. Peptides stock solutions were prepared in assay buffer (50 mM Tris.HCl pH=8.0, 560 μM calcium chloride, 0.1% Tween-20) containing <3% of DMSO. The reactions were performed at a 200 μL scale, in assay buffer, at final concentrations of 50 μM for peptide and […] for α-chymotrypsin (10 μL from the reconstitution solution). The mixture was incubated at 37° C. and aliquots were withdrawn in portions of 25 μL at different time points for analysis. The removed aliquots were mixed with 25 μL of water 1% TFA, and then treated with a column for detergent removal following the manufacturer's protocol (Pierce, Catalog #:87776). The rate of peptide proteolysis was monitored by HPLC and HPLC-MS analysis. Control experiments were carried out under the same conditions but using BSA instead of α-chymotrypsin.

[1] = biological target: T2, α-chymotrypsin from bovine pancreas type II (Bos taurus, UniProt P00766); assay: Chymotrypsin stability test; format: in vitro ADME; conditions: HPLC and LC/MS monitoring
T2 construct: freshly prepared α-chymotrypsin from bovine pancreas type II, ≥40 U/mg; purchased; host or cells: bovine pancreas
Description: as §1

[2] = Circular dichroism (helicity); format: physicochemical; conditions: CD in water, 20° C.
Description: Circular dichroism spectra were recorded on a CHIRASCAN™ spectrometer. Peptides were dissolved in deionized water, at a concentration of 25 μM. CD signal was monitored at 1 nm intervals from 180 to 260 nm with a 1-mm path quartz cuvette. The data reported is the average of three scans, subtracting the background. The helical content of each peptide was determined using prism 7 software, with molar ellipticity [θ][deg·cm^2dmol^−1] being calculated using the following formula: [θ]=1000000×0/(C×#of residues×l), where θ is the ellipticity read out from Chirascan, C is the concentration of peptide samples in μM, l is the pathlength of the cuvette measured in mm. The percentage helicity was calculated with formula:% Hellicity=100×[θ]222/[θ]max222, where [θ]max222=−31500×[1−([…])].

Plasma stability test = format: in vitro ADME; conditions: human plasma, 37° C.
Description: 1 mM stock solution of the corresponded peptide was prepared in PBS buffer (pH 7.4). Next, 50 μL from […] this solution were added to 1 mL of human plasma (Sigma-Aldrich, P9523). The mixture was incubated at 37° C. with mechanical shaking at 300 rpm. Aliquots were withdrawn in portions of 150 μL at different time points for analysis and mixed with 60 μL ACN/EtOH (1:1 v/v) for plasma protein precipitation. After centrifugation at 12000 rpm for 5 min, the supernatant was collected and analyzed by HPLC and HPLC-MS.

circular dichroism = conditions: deionized water; pH unbuffered; 20 °C; 25 uM

Molecule	half-life at 50 μM (α-chymotrypsin) [h]	stability to chymotrypsin proteolysis [1]	helicity [2] [%]	time to full degradation in plasma (Plasma stability test) [min]	helicity (circular dichroism) [%]
CC[C@H](C)[C@H](NC(=O)[C@H](CCCCN)NC(=O)[C@@H]1CSCCCSC[C@H](NC(=O)[C@@H](NC(C)=O)C(C)C)C(=O)N[C@@H](CC(N)=O)C(=O)N[C@@H](CCC(=O)O)C(=O)N[C@@H](CCC(=O)O)C(=O)N1)C(=O)N[C@@H](Cc1c[nH]c2ccccc12)C(=O)N[C@@H](CCCCN)C(=O)N[C@@H](CCCCN)C(=O)N[C@@H](CC(N)=O)C(=O)N[C@H](C(=O)N1CCC[C@H]1C(=O)N[C@@H](Cc1ccccc1)C(=O)N[C@@H](CC(C)C)C(N)=O)[C@@H](C)O [24 (GN-Z24), V[CNEEC](CH2)3KIWKKNTPFL] (Ac-VCNEECKIWKKNTPFL-NH2; linker 2-6 via X1; C-terminus assumed)	20.5	enhanced stability; also recorded: marked protection			
Ac-TVDKIASALSVLAEEVPQN-NH2 [compound 1, reference compound]			4.8	5	4.8

— US11345725B2, “Bis-thioether stapled peptides as inhibitors of PRC2 function” (Research Foundation of the City University of New York, priority 2019, dated 2022)
